Source: patent publication US20240158341A1, “COMPOUND, MANUFACTURING METHOD THEREFOR, ANTIMICROBIAL AGENT, AND MEDICINAL DRUG” (Murata Manufacturing Co., Ltd., priority 2021, published 2024)

How the values were obtained:
Micrococcus luteus = assay: Paper disc antimicrobial test; format: cell-based; conditions: 10 μg/6 mm disc
Experimental: (§1) An antimicrobial test against the following bacteria and fungi was performed using a paper disc (6 mm, manufactured by ADVANTEC) containing the compound (1a-1).
(§2) (1) Gram-Positive Bacteria • Mycobacterium smegmatis • Bacillus subtilis • Staphylococcus aureus • Micrococcus luteus
(§3) An antimicrobial test was performed with a 10 μg/6 mm disc, using the culture solution of the above bacteria and fungi. The test was conducted in accordance with the method described in Koyama et al., Calpinactam, a new anti-mycobacterial agent, produced by Mortierella alpina FKI-4905, The Journal of Antibiotics (2010) 63, pages 183 to 186.

Bacillus subtilis = assay: Paper disc antimicrobial test; format: cell-based; conditions: 10 μg/6 mm disc
Experimental: as §1, §2, §3

Mycobacterium smegmatis = assay: Paper disc antimicrobial test; format: cell-based; conditions: 10 μg/6 mm disc
Experimental: as §1, §2, §3

Staphylococcus aureus = assay: Paper disc antimicrobial test; format: cell-based; conditions: 10 μg/6 mm disc
Experimental: as §1, §2, §3

Candida albicans = assay: Paper disc antimicrobial test; format: cell-based; conditions: 10 μg/6 mm disc
Experimental: as §1
(§4) (3) Yeast • Candida albicans
as §3

gram-positive bacteria [1] = assay: Paper disc antimicrobial test, summary for gram-positive bacteria; format: cell-based; conditions: against gram-positive bacteria
Experimental: as §1, §2, §3

yeasts = assay: Paper disc antimicrobial test, summary for yeasts; format: cell-based; conditions: against yeasts
Experimental: as §1, §4, §3

gram-positive bacteria [2] = conditions: against gram-positive bacteria; Non-Patent Literature 1; cited from earlier work

Molecule	Inhibitory zone (Micrococcus luteus) [mm]	Inhibitory zone (Bacillus subtilis) [mm]	Inhibitory zone (Mycobacterium smegmatis) [mm]	Inhibitory zone (Staphylococcus aureus) [mm]	Inhibitory zone (Candida albicans) [mm]	antimicrobial action (gram-positive bacteria [1])	antimicrobial action (yeasts)	antimicrobial activity (gram-positive bacteria [2])
[C-]#[N+][C@@H](Cc1ccc(O)c(-c2cc(C[C@H](NN)C(N)=O)ccc2O)c1)C(N)=O [compound (1a-1)]	26	14	19	23	20	showed an antimicrobial action	showed an antimicrobial action	–
hazimycin A	–	–	–	–	–	–	–	had an antimicrobial activity
